Measurements published in paper PMC11335392, “Characterization of an Estrogen Receptor α-Selective ^18 F-Estradiol PET Tracer” (World Journal of Nuclear Medicine, 2024).

Target: T1, estrogen receptor α (ERα) (Homo sapiens, UniProt P03372)
T1 construct: gene ESR1; full-length human ESR1 (ERα), transiently expressed in HEK293T cells
T1 sequence (P03372 1-595): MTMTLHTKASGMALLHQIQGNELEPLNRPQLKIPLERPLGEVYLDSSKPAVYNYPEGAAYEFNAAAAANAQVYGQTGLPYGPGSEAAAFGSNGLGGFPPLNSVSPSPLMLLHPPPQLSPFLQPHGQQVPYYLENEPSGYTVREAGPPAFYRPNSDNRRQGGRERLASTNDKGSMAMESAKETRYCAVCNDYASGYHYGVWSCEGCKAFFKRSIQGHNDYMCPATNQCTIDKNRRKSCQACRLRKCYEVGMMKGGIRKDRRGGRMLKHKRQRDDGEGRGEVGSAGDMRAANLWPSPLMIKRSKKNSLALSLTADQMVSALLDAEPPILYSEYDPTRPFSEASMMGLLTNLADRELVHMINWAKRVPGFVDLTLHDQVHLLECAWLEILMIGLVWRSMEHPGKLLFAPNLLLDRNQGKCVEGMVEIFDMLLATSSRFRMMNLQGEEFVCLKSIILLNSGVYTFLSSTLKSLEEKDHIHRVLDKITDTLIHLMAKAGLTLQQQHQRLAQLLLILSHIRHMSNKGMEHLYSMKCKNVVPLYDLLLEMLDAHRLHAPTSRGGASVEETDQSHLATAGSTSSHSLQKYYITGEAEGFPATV
Experiment: radioligand saturation binding with Scatchard analysis in ERα-transfected HEK293T cells
Format: cell-based

Kd: 94 nM
SMILES: C[C@]12CC[C@@H]3c4ccc(O)cc4CC[C@H]3[C@@H]1C[C@@H](F)[C@@H]2O [[18F]FES, 16α-[18F]fluoro-17β-estradiol]
